How the values were obtained:
sodium channels = assay: allosteric modulation of sodium channels; details: σ1 induced
mice [1] = assay: Maximal Electroshock tonic extension; details: mouse, in vivo
mice [2] = assay: Pentylenetetrazole (PTZ) induced behavioral effects and seizures in mice; type: in vivo; details: Fendiline 1.0 to 50 mg/kg (po), PTZ 10 to 70 mg/kg (ip)
Procedure: In good agreement with the above receptors affinities and its molecular pharmacological properties, Fendiline, at 1.0 to 50 mg/kg, (po), in mice antagonized all the behavioral effects (in mice) corresponding to the symptoms, in humans, announcing the development of the neurodegenerative and neurodevelopmental diseases, i.e., anxiety, fear, social disconnection, agressivity, compulsive reactions, hypermotility, stereotypic activity, pain, lethargy and seizures, appearing at various degrees according to the amplitude of the Glutamate/GABA imbalance and to the brain regions (Basal Ganglia, Hippocampus, Cortex) affected by the above imbalance. Indeed, all the above behavioral effects (obtained, in mice, by administration of the GABAergic antagonist Pentylenetetrazole (PTZ) at 10 to 70 mg/kg, intraperitoneal (ip): with 10 to 40 mg/kg (ip) giving fear, anxiety, social disconnection, and agressivity, hypermotility and stereotypies—the latter being better expressed by previous (reserpine induced) hypersensibilisation of the brain DA receptors—and seizures (obtained at 50 to 70 mg/kg (ip) of PTZ), were antagonized by Fendiline at 1.0 to 50 mg/kg (po).

[3] = neuropathic pain animal models; type: in vivo; details: appropriate animal models
GABA (A) receptors = assay: allosteric modulation of GABA (A) receptors
mice [4] = assay: PTZ clonic convulsions and fatal tonic crises in mice; type: in vivo
[5] = tested on: N-methyl-D-aspartic acid (NMDA) glutamatergic receptors; assay: allosteric modulation of NMDA receptors; details: σ1 induced
[6] = tested on: cholinergic muscarinic receptors; assay: modulation of muscarinic receptors; details: σ1 induced
GABA (B) receptors = assay: allosteric modulation of GABA (B) receptors
sigma-1(σ1) receptor = molecular target: T1, sigma-1(σ1) receptor (Mus musculus, UniProt O55242); assay: sigma-1 agonistic/antagonistic activity in mice; type: in vivo
T1 construct: from tissue; host or cells: whole animal (mice, oral administration)
T1 sequence (O55242 whole entry): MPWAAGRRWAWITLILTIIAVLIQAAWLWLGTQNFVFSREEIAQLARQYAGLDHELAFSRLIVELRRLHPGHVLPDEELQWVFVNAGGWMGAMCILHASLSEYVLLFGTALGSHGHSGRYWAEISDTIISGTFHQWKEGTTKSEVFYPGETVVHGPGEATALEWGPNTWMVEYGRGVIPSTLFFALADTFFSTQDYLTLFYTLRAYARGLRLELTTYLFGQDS

CC(NCCC(c1ccccc1)c1ccccc1)c1ccccc1 (stereo not shown) [Fendiline, 3,3-diphenyl-N-(1-phenylethyl) propan-1-amine]
modulation of sodium channels (sodium channels): negative allosteric modulations
protection against fatal tonic crises (tonic extensions), Maximal Electrochock (mice [1]): did not protect
effect on PTZ induced behavioral effects (fear, anxiety, social disconnection, agressivity, hypermotility, stereotypies, seizures) (mice [2]): antagonized
effect against neuropathic pain [3]: analgesic effect
modulation of GABA (A) receptors (GABA (A) receptors): allosteric positive modulation
protection against fatal tonic crises (tonic extensions), high doses of PTZ (mice [4]; PTZ more than 80 mg/kg (ip), in mice): did not protect
protection against PTZ clonic convulsions (mice [4]; mice): did not protect
modulation of NMDA glutamatergic receptors [5]: negative allosteric modulations
modulation of cholinergic muscarinic receptors [6]: discreet negative modulation
modulation of GABA (B) receptors (GABA (B) receptors): allosteric positive modulation
sigma-1 activity at low doses (sigma-1(σ1) receptor; 0,003 to 1.0 mg/kg per os (po), in mice): partial agonistic activity
sigma-1 activity at higher doses (sigma-1(σ1) receptor; more than 1.0 mg/kg (po) in mice): antagonistic
sigma-1 intrinsic activity (sigma-1(σ1) receptor; mouse, in vivo): low intrinsic activity

From patent publication US20180193289A1, “PROTOTYPICAL MOLECULAR PHARMACOLOGIC PROFILE OF FENDILINE AGAINST NEURODEGENERATIVE AND NEURODEVELOPMENTAL DISEASES” (priority 2016, published 2018)
